These results are taken from US11933794B2, “Method for determining factor Xa inhibitor dosage” (Good Biomarker Sciences B.V., priority 2017, dated 2024).

Data set [1] concerns clot growth in hemophilia plasma (deficient in Factor IX and Factor VIII). The data set can be described thus: Clot growth experiments comparing normal and hemophilia plasma. Format: biochemical, human. To be noted: hemophilia plasmas; in contrast to what was found in normal plasma. The source says: For clot growth, this now appears the key mechanism. In contrast, in text books, activation of Factor VIII is indicated to be a thrombin action.
(§1) The clot growth rate assay monitors over time fibrin clot development in a nonstirred thin layer of platelet-free plasma activated by immobilized tissue factor. For this, the Thrombodynamics Basic Kit can be used as an in vitro diagnostic kit used to perform measurements of spatiotemporal dynamics of fibrin clot formation in blood plasma samples. The kit consists of measurement cuvettes, activating inserts and reagents for samples treatment. The kit is obtainable from HemaCore intended for professional use in the laboratory on the Thrombodynamics Analyzer T-2. See, for further details, Soshitova et al. (Blood Coagul. Fibrinolysis, 2012 September; 23(6):498-507).

In data set [2] the test system is fibrin clot formation in blood plasma. Nature of the data set: Clot growth rate assay (Thrombodynamics) in plasma samples with defined Factor VIII levels. Format: biochemical, human. The following applies: for inhibition of clot growth rate: FIG. 1.
Text: as §1
Five plasma samples were prepared containing 50%, 75%, 100%, 150%, or 200% Factor VIII, respectively. The samples were prepared using FVIII-deficient plasma, normal plasma from healthy subjects, and FVIII concentrate and Factor VIII levels were measured and confirmed by the one-stage clotting assay. Each of these five plasma samples was subdivided into five subsamples to which apixaban was added to a total concentration of 0 μM, 0.1 μM, 0.2 μM, 0.35 μM, or 0.5 μM in plasma, respectively. The 25 subsamples were subjected to a clot growth assay as described above, and the clot growth rate was measured at 2500 seconds after start of growth.
For each different Factor VIII concentration (i.e., 50%, 75%, 100%, 150% or 200%), five bars are shown representing subsamples to which apixaban was added to a different total concentration, i.e., 0 μM, 0.1 μM, 0.2 μM, 0.35 μM, or […], respectively.

Another data set relates to coagulation status. The data set can be described thus: Coagulation status of patients by routine coagulation test (activated partial thromboplastin time, APTT). Format: in vivo, human. The method, then:
Four subjects in need of […] are selected, including three patients with thrombosis, and one patient with coronary artery disease.
Coagulation status of patients 1-4 is determined by a routine coagulation test (activated partial thromboplastin time, APTT).

With `COc1ccc(-n2nc(C(N)=O)c3c2C(=O)N(c2ccc(N4CCCCC4=O)cc2)CC3)cc1` [apixaban], the “inhibition of clot growth” value in data set [1] is listed as “did not inhibit clot growth”. For the same molecule, the “inhibition of clot growth rate” value is recorded as “close to maximal inhibition” in data set [2] (Factor VIII level below 100%, lowest apixaban concentration (0.1 μM in plasma)); “not be very effective” in data set [2] (Factor VIII levels above 100%, 0.1 μM apixaban); “substantial inhibition” in data set [2] (Factor VIII levels above 100%, 0.35 μM apixaban in plasma). In addition, the “coagulation status (APTT): risk of blood clotting or bleeding events” value is “no increased risk of blood clotting or bleeding events” in the data set with coagulation status (Patient 1 (thrombosis), Factor VIII 80% of standard plasma, 5 mg per day) and “increased risk of blood clotting events” with coagulation status (Patient 4 (coronary artery disease), Factor VIII 240% of standard plasma, 5 mg per day).

Consider `CN1CCc2nc(C(=O)N[C@@H]3C[C@@H](C(=O)N(C)C)CC[C@@H]3NC(=O)C(=O)Nc3ccc(Cl)cn3)sc2C1` [edoxaban], for which the “coagulation status (APTT): risk of blood clotting or bleeding events” value in the data set on coagulation status (Patient 2 (thrombosis), Factor VIII 95% of standard plasma, 20 mg per day) is recorded as “increased risk of bleeding events”.

Regarding `O=C(NC[C@H]1CN(c2ccc(N3CCOCC3=O)cc2)C(=O)O1)c1ccc(Cl)s1` [rivaroxaban], in data set [1], the “inhibition of clot growth” value is “did not inhibit clot growth”. For the same molecule, in data set [2] (FIG. 2), the “effects in the clot growth rate assay compared with apixaban” value was “closely mimic the effects of apixaban”.
